{
  "source": "paper PMC9238271",
  "about": "“The quorum sensing peptide EntF* promotes colorectal cancer metastasis in mice: a new factor in the host-microbiome interaction” (BMC Biology, 2022)",
  "key": {"[1]": {"system": "tumor nodules in the lungs", "experiment": "Orthotopic mouse model: histopathological evaluation of lungs", "assay_type": "in vivo, female athymic nude mice (Swiss nu/nu)", "procedure": "Six-week-old female athymic nude mice (Swiss nu/nu) were anesthetized, and a minimally invasive midline laparotomy was performed to localize the cecum. The cecum was then gently pulled out, and luciferase-transfected HCT-8/E11 cells (1 × 10^6 cells) in 20 μL serum-free DMEM medium with Matrigel (1:1) were injected into the cecal wall. Before implantation, cells were treated with EntF* (10^2 nM), Phr0662 (10^2 nM), vehicle (PBS), or TGFα positive control (0.1 μg mL^−1) solutions for 5 days. The cecum was then carefully placed back into the abdominal cavity and the surgical incision was closed with two layers of sutures with PDS 6-0. […] Once a week, mice were examined for tumor growth and metastases using bioluminescent imaging with the IVIS Lumina II (Perkin Elmer, Belgium) after i.p. injection with 200 μL luciferin (150 mg kg^−1). After 6 weeks, mice were euthanized using cervical dislocation, and the liver, diaphragm, lungs, cecum, duodenum, and peritoneum were macroscopically examined for the presence of tumor nodules. Liver and lung tissues were then fixed in formalin for 24 h and stored in 70% ethanol for maximum 3 days before embedding in paraffin. Next, a hematoxylin and eosin (H&E) staining was performed on 8 μm sections, and 3 sections per mouse were visualized using microscopy. Slides from tumor-bearing mice were analyzed by two blinded, independent investigators using the scoring system described in Additional file 5: Table S3. In case of differences, slides were scored by a third blinded, independent investigator for consensus."}, "[2]": {"system": "E-cadherin expression in HCT-116 cells", "experiment": "Western blot of E-cadherin expression, CXCR4-negative HCT-116 cells", "assay_type": "cell-based", "procedure": "HCT-8, HT-29, and HT-116 cells were grown in DMEM medium supplied with 10% fetal bovine serum (FBS) and 1% penicillin-streptomycin. Caco-2 cells were grown in DMEM medium supplied with 10% FBS, 1% non-essential amino acid NEAA), and 1% penicillin-streptomycin. Cells were cultured at 37 °C and 5% CO2. As cells reached confluency, they were detached using 0.25% Trypsin-EDTA.\nFor Western blot analyses, HCT-8 (n = 15), HCT-116 (n = 12), Caco-2 (n = 6), and HT-29 (n = 12) cells were seeded in 6-well plates at a density of 1 × 10^6 cells/well. Twenty-four hours after seeding, all cell lines were treated with 1 μM EntF* or a placebo solution. HCT-8 cells were also tested for responsiveness to 1 μM EntF* synthetic alanine-derived analogs. For antagonist activity analysis, HCT-8 cells were treated with 1 μM Nef-M1 or 1 μM EntF*A1 alone or in combination with 500 nM EntF*. After 24 h, cells were detached from the surface and lysed in RIPA buffer (Thermo Scientific). Protein concentration was determined using the modified Lowry protein assay kit (Thermo Scientific), according to the manufacturer’s instructions. Protein samples were diluted to the same concentration (4 μg/μL) with water and diluted again 1:1 using 2x Laemmli buffer. After that, samples were boiled for 5 min at 95 °C to denature proteins and centrifuged for 5 min at 16,000g; supernatants were used for Western blot analyses. Equal amounts of total protein (20 μg/lane) were separated by SDS-PAGE on an Any kD^TM gel (Bio-Rad ) and then transferred to a PVDF membrane. Before incubation with antibodies, non-specific binding sites on the membranes were blocked using 5% skimmed milk solution (1 h). TBS buffer with 0.05% Tween 20 was used for all washing steps. Membranes were incubated overnight at 4 °C with an anti-E-cadherin primary antibody (1/1000 dilution). An HRP-conjugated anti-rabbit antibody (1/2000 dilution, 1 h incubation) was used for chemiluminescent detection. Membranes were incubated with the detection substrate for 5 min and signal detection was performed using the ChemiDoc EZ imager and Image Lab software (Bio-Rad). Signal intensity was normalized against the total protein content in each lanes."}},
  "note": "Several values for one entry are separate records, joined by “and”; a condition that tells them apart may be missing. Identical values can stand only once.",
  "data": [
    {"smiles": "CC(C)C[C@@H]1NC(=O)[C@H](CO)NC(=O)[C@H](Cc2ccccc2)NC(=O)[C@H](C(C)C)NC(=O)[C@@H](NC(=O)[C@H](CCC(=O)O)NC(=O)[C@@H](NC(=O)[C@H](CC(C)C)NC(=O)[C@H](CC(N)=O)NC(=O)[C@@H](N)CO)C(C)C)CSSC[C@@H](C(=O)N[C@@H](CC(N)=O)C(=O)O)NC(=O)[C@H](CCCCN)NC(=O)[C@H](CCCCN)NC(=O)[C@H](Cc2ccccc2)NC1=O", "note": "(single isomer, unassigned) [EntF*]", "values": [
      {"measurement": "number of tumor nodules in the lungs compared to the vehicle", "setting": "[1]; 6 weeks of treatment, H&E histopathological score, n = 30 EntF*, n = 8 PBS", "result": "significantly higher number of tumor nodules"},
      {"measurement": "Histology scoring LUNGS, Scoring person 1 (ND)", "setting": "[1]; individual samples, one line per sample", "result": "3 and 4 and 0 and 1"},
      {"measurement": "Histology scoring LUNGS, conclusion per group", "setting": "[1]; per group", "result": 1},
      {"measurement": "effect on E-cadherin expression in HCT-116 cells", "setting": "[2]; CXCR4-negative cells, 24 h, n = 12", "result": "no decrease"},
      {"measurement": "Relative E-cadherin level", "setting": "[2]; HCT-116 cells, average of n = 12", "result": 103.8}
    ]}
  ]
}
